The source of these data is article PMC8045006 (Heliyon, 2021).

The term IC50 denotes the concentration that gives 50% inhibition.

Entries after “also recorded” stand apart in the source; their conditions may differ. Read-outs that look alike come from different tables or passages of the source.

The target of experiment [1] is T1, Electrical (Torpedo californica) AChE (type VI-S) (Electrophorus electricus, UniProt O42275).
T1 construct: purchased Sigma-Aldrich (Steinheim, Germany) type VI-S
The experiment is described as follows: biochemical. The experiment is classed as biochemical. Here is the method:
(§1) Fluka provided potassium hydroxide, sodium hydrogen carbonate, potassium dihydrogen phosphate, and dipotassium hydrogen phosphate. Sigma-Aldrich (Steinheim, Germany) provided BuChE (E.C.3.1.1.8, from equine serum), Electrical ([…]) AChE (type VI-S), acetylthiocholine iodide, 5,5⸍-dithiobis [2-nitrobenzoic acid]
(§2) In order to set the derivatives’ stock solutions, they were dissolved in the dimethyl sulfoxide (DMSO). Then, we diluted them in the absolute ethanol for obtaining 3 varying concentrations for assay. The experiments were done in triplicate for each concentration. The assay solution included […], […] of phosphate buffer (0.1M, pH = 8), […] of 5 IU/mL butryl cholinesterase solution, and […] of inhibitor. Afterwards, the product was pre-incubated at 25 ᵒC for 10 min. Then, […] of butyrylthiocholine iodide was added as the substrate to the 24 wells for starting the reaction. […] For justifying non-enzymatic reaction, we conducted assays with a blank having all components except ButChE.
Moreover, AChE took the same assay for obtaining the derivatives’ anti-AChE activity.

Experiment [2] deals with T2, BuChE (E.C.3.1.1.8, from equine serum) (Equus caballus, UniProt P81908).
T2 construct: BuChE (E.C.3.1.1.8, from equine serum); purchased Sigma-Aldrich (Steinheim, Germany); host or cells: equine serum
T2 sequence (P81908 whole entry): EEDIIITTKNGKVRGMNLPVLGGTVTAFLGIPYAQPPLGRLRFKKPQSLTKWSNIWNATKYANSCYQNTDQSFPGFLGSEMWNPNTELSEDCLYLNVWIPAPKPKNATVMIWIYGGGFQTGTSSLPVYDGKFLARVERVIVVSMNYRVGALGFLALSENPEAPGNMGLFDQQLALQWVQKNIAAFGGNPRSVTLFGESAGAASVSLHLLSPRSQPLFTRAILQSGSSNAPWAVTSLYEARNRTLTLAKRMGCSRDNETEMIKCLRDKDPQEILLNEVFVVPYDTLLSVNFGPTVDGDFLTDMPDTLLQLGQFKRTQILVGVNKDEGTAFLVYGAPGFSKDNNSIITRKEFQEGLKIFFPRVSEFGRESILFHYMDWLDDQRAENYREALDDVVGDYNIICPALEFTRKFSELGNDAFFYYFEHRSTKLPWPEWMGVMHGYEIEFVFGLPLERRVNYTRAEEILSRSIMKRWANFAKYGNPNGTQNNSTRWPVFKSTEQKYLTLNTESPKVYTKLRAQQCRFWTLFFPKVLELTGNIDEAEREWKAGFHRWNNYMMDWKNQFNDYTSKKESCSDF
The experiment is described as follows: biochemical. Type of experiment: biochemical. Here is the method: as §1
as §2, with “ButChE. […]” for “ButChE.”

The mark [3] stands for this setting: Ellman's method, average ±SD, triplicate, read-out: AChE Inhibition [IC50 (μM)].
Setting [4] is: Ellman's method, average ±SD, triplicate, read-out: BuChE Inhibition [IC50 (μM)].
[5] abbreviates: read-out: AChE Inhibition [IC50 (μM)].
The mark [6] stands for this setting: read-out: BuChE Inhibition [IC50 (μM)].

T1 sequence (O42275 24-633): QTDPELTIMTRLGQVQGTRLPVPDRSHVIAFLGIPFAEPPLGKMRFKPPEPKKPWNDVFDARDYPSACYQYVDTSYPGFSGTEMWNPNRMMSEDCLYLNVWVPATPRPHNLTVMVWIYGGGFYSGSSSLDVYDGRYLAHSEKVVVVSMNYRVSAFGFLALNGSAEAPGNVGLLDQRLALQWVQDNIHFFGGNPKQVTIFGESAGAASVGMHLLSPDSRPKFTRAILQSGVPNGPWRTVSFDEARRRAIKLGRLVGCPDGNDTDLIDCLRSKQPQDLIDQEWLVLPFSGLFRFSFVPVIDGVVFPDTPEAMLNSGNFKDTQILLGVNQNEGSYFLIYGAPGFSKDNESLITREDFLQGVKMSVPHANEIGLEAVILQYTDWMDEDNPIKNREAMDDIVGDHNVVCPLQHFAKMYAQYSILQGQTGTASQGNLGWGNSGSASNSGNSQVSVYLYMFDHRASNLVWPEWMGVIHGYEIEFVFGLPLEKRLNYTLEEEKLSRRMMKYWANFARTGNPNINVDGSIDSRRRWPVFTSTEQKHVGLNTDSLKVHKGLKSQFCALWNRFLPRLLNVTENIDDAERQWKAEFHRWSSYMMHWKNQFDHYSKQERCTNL

With `O=c1c2ccccc2ncn1Cc1ccc[n+](Cc2cccc(Br)c2)c1` [BOP-1, 1-(3-Bromobenzyl)-3-((4-oxoquinazolin-3(4H)-yl)methyl) pyridin-1-ium bromide], the IC50 in experiment [1] (setting [3]) stood at 5.9 ± 0.07 µM; in experiment [2] it was 6.76 ± 0.04 µM.
As for `O=c1c2ccccc2ncn1Cc1ccc[n+](Cc2ccc(Cl)cc2)c1` [BOP-2, 1-(4-Chlorobenzyl)-3-((4-oxoquinazolin-3(4H)-yl)methyl) pyridin-1-ium chloride], the half-maximal inhibitory concentration (IC50) in experiment [1] (setting [3]) was found to be 47.1 ± 0.48 µM; in experiment [2] (setting [4]) it was 29 ± 0.43 µM.
Take `O=c1c2ccccc2ncn1Cc1ccc[n+](Cc2ccc(F)cc2)c1` [BOP-3, 1-(4-Flourobenzyl)-3-((4-oxoquinazolin-3(4H)-yl)methyl) pyridin-1-ium chloride]: the half-inhibitory concentration (IC50) in experiment [1] (setting [5]) is > 100 µM; in experiment [2] (setting [6]) it was 70.43 ± 0.41 µM.
Consider `N#Cc1ccc(C[n+]2cccc(Cn3cnc4ccccc4c3=O)c2)cc1` [BOP-4, 1-(4-Cyanobenzyl)-3-((4-oxoquinazolin-3(4H)-yl)methyl) pyridin-1-ium bromide], for which the IC50 in experiment [1] (setting [3]) and in experiment [2] (setting [4]) was > 100 µM throughout.
`O=c1c2ccccc2ncn1Cc1ccc[n+](Cc2ccccc2)c1` [BOP-5, 1-Benzyl-3-((4-oxoquinazolin-3(4H)-yl)methyl) pyridin-1-ium bromide]: the IC50 in experiment [1] (setting [3]) is 41.2 ± 0.62 µM; in experiment [2] (setting [4]), 12.63 ± 0.11 µM.
Take `COc1cc2ncn(Cc3ccc[n+](Cc4cccc(Br)c4)c3)c(=O)c2cc1OC` [BOP-6, 1-(3-Bromobenzyl)-3-((6,7-dimethoxy-4-oxoquinazolin-3(4H)-yl)methyl) pyridin-1-ium bromide]: the IC50 came out at 6.77 ± 0.24 µM in experiment [1] (setting [3]) and 8.77 ± 0.11 µM in experiment [2] (setting [4]).
As to `COc1cc2ncn(Cc3ccc[n+](Cc4ccc(F)cc4)c3)c(=O)c2cc1OC` [BOP-7, 1-(4-Flourobenzyl)-3-((6,7-dimethoxy-4-oxoquinazolin-3(4H)-yl)methyl) pyridin-1-ium chloride], the IC50 was 21.92 ± 0.2 µM in experiment [1] (setting [5]) and > 100 µM in experiment [2] (setting [6]).
As to `COc1cc2ncn(Cc3ccc[n+](Cc4ccc(Cl)cc4)c3)c(=O)c2cc1OC.[Cl-]` [BOP-8, 1-(4-Chlorobenzyl)-3-((6,7-dimethoxy-4-oxoquinazolin-3(4H)-yl)methyl) pyridin-1-ium chloride], the IC50 in experiment [1] was 1.11 ± 0.09 µM; in experiment [2] (setting [4]), > 100 µM. In addition, the “BuChE inhibition (result in words)” value in experiment [2] (Ellman's method) is given as “no inhibitory activity; also recorded: no inhibition”.
Take `COc1cc2ncn(Cc3ccc[n+](Cc4ccc(C#N)cc4)c3)c(=O)c2cc1OC` [BOP-9, 1-(4-Cyanobenzyl)-3-((6,7-dimethoxy-4-oxoquinazolin-3(4H)-yl)methyl) pyridin-1-ium bromide]: the IC50 in experiment [1] (setting [3]) and in experiment [2] (setting [4]) was > 100 µM throughout.
With `COc1cc2ncn(Cc3ccc[n+](Cc4ccccc4)c3)c(=O)c2cc1OC` [BOP-10, 1-Benzyl-3-((6,7-dimethoxy-4-oxoquinazolin-3(4H)-yl)methyl) pyridin-1-ium bromide], the IC50 in experiment [1] (setting [3]) was 10.1 ± 0.28 µM; in experiment [2] (setting [4]), 18.8 ± 0.34 µM.
